Legend:
[1] = Titration of aqueous sample 4 with sodium hydroxide, composition by HPLC; type: physicochemical; settings: sample 4 titrated with sodium hydroxide to pH of about 6.2
Excerpt: The molarity of sample 4 was confirmed to be 0.025M by titrating the aqueous sample with sodium hydroxide. […] It was also discovered that at pHs greater than 5.8, such as at a pH of about 6.2, some of the pyruvic acid was present in the form of a dimerized sodium salt. […] As such, it was discovered that to minimize dimmer formation, it may be necessary to control the pH of [1-^13C] pyruvate solutions, and in particular, any aqueous solution should be maintained at a pH of about 6.5 or less, more preferably 6.0 or less, and even more preferably 5.8 or less.

[2] = Shelf storage stability of [1-^13C] pyruvic acid in water, 1H and 13C NMR spectra compared; type: physicochemical; settings: 0.025M in water
Procedure: Samples of isotopically labeled [1-^13C] pyruvic acid, having Formula VI and synthesized as discussed immediately below, were subjected to various conditions as depicted in Table 1, in order to establish the compound's shelf storage stability.
The resulting [1-^13C] pyruvic acid was tested as follows in Table 1:
^1H and ^13C NMR spectra of the distilled [1-^13C] pyruvic acid in water (0.025M) were acquired at the onset of the study and prior to exposing the samples to the various conditions specified in Table 1. ^1H and ^13C NMR spectra were again acquired for each of the samples after being exposed to the aforementioned conditions on a weekly basis for 12-weeks. The spectra acquired after exposure were compared visually and appeared to remain unchanged as compared with the spectra acquired prior to exposure, i.e. the spectra were as expected for [1-^13C] pyruvic acid in water. As such, it was concluded that each of the samples were shelf stable. Similarly, ^1H and ^13C NMR spectra acquired after 17-weeks of exposure remained unchanged as compared with the spectra acquired prior to exposure.

[3] = Concentration studies: stability of pyruvic acid solutions in water at higher concentrations; type: physicochemical; set-up: unit not given here; settings: light, about 22° C. to about 26° C.
Procedure: Each of these commercial solutions were subjected to light for 6-weeks at temperatures ranging from about 22° C. to about 26° C. At each of the concentrations listed below, it was discovered that the pyruvic acid solutions were stable.

[4] = background description; cited from earlier work
[5] = Sample 3, Room temperature (about 22° C. to about 26° C.), Dark
[6] = Sample 4, Room temperature (about 22° C. to about 26° C.), Light

Structure (SMILES) | Share of the pyruvic acid accounted for by dimerized salt [1] | Shelf stability, 12 weeks ([2]; Sample 1, −10° C., Dark) | Shelf stability, 17 weeks ([2]; Sample 1, −10° C., Dark) | Shelf stability, 12 weeks ([2]; Sample 2, 4° C., Dark) | Shelf stability, 17 weeks ([2]; Sample 2, 4° C., Dark) | Shelf stability, 12 weeks [2, 5] | Shelf stability, 17 weeks [2, 5] | Shelf stability, 12 weeks [2, 6] | Shelf stability, 17 weeks [2, 6] | Stability After 6-weeks ([3]; Concentration 2.3 in water) | Stability After 6-weeks ([3]; Concentration 2.8 in water) | Stability After 6-weeks ([3]; Concentration 3.8 in water) | Stability After 6-weeks ([3]; Concentration 5.7 in water) | Stability After 6-weeks ([3]; Concentration 11.3 in water) | Solubility in water [4]
CC(=O)[13C](=O)O [[1-^13C] pyruvic acid] | 4-6% | Stable | Stable | Stable | Stable | Stable | Stable | Stable | Stable | – | – | – | – | – | –
CC(=O)C(=O)O [Pyruvic acid, 2-oxopropanoic acid] | – | – | – | – | – | – | – | – | – | Stable | Stable | Stable | Stable | Stable | soluble in water
